Experimental data from ChEMBL document CHEMBL1146031, “N-acylated sulfonamide sodium salt: a prodrug of choice for the bifunctional 2-hydroxymethyl-4-(5-phenyl-3-trifluoromethyl-pyrazol-1-yl) benzenesulfonamide class of COX-2 inhibitors” (Bioorg Med Chem Lett, 2006).
Where “and” joins values, the source holds several entries; their conditions need not be identical. Equal entries are not always repeated. Calls of active or inactive are those of the source. The rule behind the calls is not given here.

Legend:
Rattus norvegicus [1] = assay: Anti-inflammatory activity in orally dosed Wistar rat assessed as reduction of carrageenan-induced paw edema at 30 mg/kg, po; type: functional
Rattus norvegicus [2] = assay: Anti-inflammatory activity in orally dosed Wistar rat assessed as reduction of carrageenan-induced paw edema; type: functional; conditions: po
[3] = target: T1, Prostaglandin G/H synthase 2 (Homo sapiens) (UniProt P35354); assay: Inhibition of human recombinant COX2 expressed in sf9 cells infected with baculovirus at 10 uM
T1 sequence (whole entry): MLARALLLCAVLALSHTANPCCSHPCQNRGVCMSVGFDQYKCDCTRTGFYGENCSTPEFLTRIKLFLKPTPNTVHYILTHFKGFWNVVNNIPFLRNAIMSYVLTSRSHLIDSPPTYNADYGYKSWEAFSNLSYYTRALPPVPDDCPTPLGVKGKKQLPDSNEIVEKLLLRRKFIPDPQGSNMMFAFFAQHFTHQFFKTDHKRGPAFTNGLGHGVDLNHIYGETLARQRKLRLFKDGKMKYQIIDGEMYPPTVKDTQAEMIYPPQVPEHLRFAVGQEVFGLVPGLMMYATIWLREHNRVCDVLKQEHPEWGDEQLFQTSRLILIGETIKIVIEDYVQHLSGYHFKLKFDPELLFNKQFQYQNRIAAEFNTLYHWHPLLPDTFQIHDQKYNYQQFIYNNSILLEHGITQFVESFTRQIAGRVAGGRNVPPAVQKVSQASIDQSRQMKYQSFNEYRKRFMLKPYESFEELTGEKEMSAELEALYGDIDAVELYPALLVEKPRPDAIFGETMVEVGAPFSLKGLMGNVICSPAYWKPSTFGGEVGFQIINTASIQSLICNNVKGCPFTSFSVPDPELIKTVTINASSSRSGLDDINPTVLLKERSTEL

[4] = AUC (0-infinity) in Wistar rat at 100 mg/kg, po; type: ADME, organism-based; parameters: time infinity, dose 100 mg/kg, route oral; conditions: plasma
[5] = target: Prostaglandin G/H synthase 1 (Ovis aries) (UniProt P05979); assay: Inhibition of microsomal COX1 at 10 uM
[6] = Tmax in Wistar rat at 100 mg/kg, po; type: ADME, organism-based; parameters: dose 100 mg/kg, route oral; conditions: in vivo
[7] = AUC in Wistar rat at 100 mg/kg, po; type: ADME, organism-based; parameters: dose 100 mg/kg, route oral; conditions: plasma
[8] = Cmax in Wistar rat at 100 mg/kg, po; type: ADME, organism-based; parameters: dose 100 mg/kg, route oral; conditions: in vivo
[9] = Terminal half life in Wistar rat at 100 mg/kg, po; type: ADME, organism-based; parameters: dose 100 mg/kg, route oral; conditions: in vivo
Rattus norvegicus [10] = assay: Anti-inflammatory activity in orally dosed Wistar rat assessed as reduction of carrageenan-induced paw edema at 1 mg/kg, po; type: functional, organism-based; parameters: dose 1 mg/kg
Rattus norvegicus [11] = assay: Anti-inflammatory activity in orally dosed Wistar rat assessed as reduction of carrageenan-induced paw edema at 10 mg/kg, po; type: functional, organism-based; parameters: dose 10 mg/kg
Rattus norvegicus [12] = assay: Anti-inflammatory activity in orally dosed Wistar rat assessed as reduction of carrageenan-induced paw edema at 3 mg/kg, po; type: functional, organism-based; parameters: dose 3 mg/kg

Prostaglandin G/H synthase 1 (Ovis aries), sequence (P05979 whole entry, looked up): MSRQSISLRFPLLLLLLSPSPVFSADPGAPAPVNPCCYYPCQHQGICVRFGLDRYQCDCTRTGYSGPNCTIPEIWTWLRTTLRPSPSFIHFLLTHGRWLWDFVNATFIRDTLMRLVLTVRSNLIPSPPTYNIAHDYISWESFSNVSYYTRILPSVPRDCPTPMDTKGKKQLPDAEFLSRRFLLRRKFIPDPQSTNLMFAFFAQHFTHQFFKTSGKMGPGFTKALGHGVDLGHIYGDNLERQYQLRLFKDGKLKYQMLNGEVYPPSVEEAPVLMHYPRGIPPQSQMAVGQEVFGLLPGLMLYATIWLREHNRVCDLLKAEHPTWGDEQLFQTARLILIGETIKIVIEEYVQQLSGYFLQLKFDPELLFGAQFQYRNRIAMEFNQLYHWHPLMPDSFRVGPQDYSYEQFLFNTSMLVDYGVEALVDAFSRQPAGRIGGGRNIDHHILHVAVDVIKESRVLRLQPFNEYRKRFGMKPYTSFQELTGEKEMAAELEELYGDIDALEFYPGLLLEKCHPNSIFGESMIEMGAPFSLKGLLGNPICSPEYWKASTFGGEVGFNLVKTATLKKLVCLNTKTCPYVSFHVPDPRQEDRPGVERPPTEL

CCC(=O)[N-]S(=O)(=O)c1ccc(-n2nc(C(F)(F)F)cc2-c2ccc3c(c2)CCC3)cc1COC(=O)CC.[Na+]
inhibition at 30 mg/kg (Rattus norvegicus [1]): 41%

CCC(=O)NS(=O)(=O)c1ccc(-n2nc(C(F)(F)F)cc2-c2ccc(SC)cc2)cc1COC(=O)CC [listing 1 of 2 here]
inhibition at 30 mg/kg (Rattus norvegicus [1]): 38%

CCC(=O)[N-]S(=O)(=O)c1ccc(-n2nc(C(F)(F)F)cc2-c2ccc(OC)c(C)c2)cc1CO.[Na+]
ED50 (Rattus norvegicus [2]): 6.2 mg/kg
inhibition [3]: 15%
AUC(0-inf) [4]: 149 µg·h/mL
inhibition [5]: 0%
Tmax [6]: 3.78 h
AUC [7]: 125 µg·h/mL
Cmax [8]: 9320 ng/mL
half-life [9]: 6.82 h

CCC(=O)[N-]S(=O)(=O)c1ccc(-n2nc(C(F)(F)F)cc2-c2ccc3c(c2)CCO3)cc1COC(=O)CC.[Na+]
inhibition at 30 mg/kg (Rattus norvegicus [1]): 43%

CCC(=O)NS(=O)(=O)c1ccc(-n2nc(C(F)(F)F)cc2-c2ccc(OC)c(C)c2)cc1COC(=O)CC [listing 1 of 2 here]
inhibition at 30 mg/kg (Rattus norvegicus [1]): 48%

CCC(=O)NS(=O)(=O)c1ccc(-n2nc(C(F)(F)F)cc2-c2ccc(SC)cc2)cc1COC(=O)CC [listing 2 of 2 here]
inhibition [3]: 18% and 25%
inhibition [5]: 0%

CCC(=O)[N-]S(=O)(=O)c1ccc(-n2nc(C(F)(F)F)cc2-c2ccc(Br)cc2)cc1CO.[Na+]
ED50 (Rattus norvegicus [2]): 7.2 mg/kg
inhibition [3]: 23%
inhibition [5]: 0%

CCC(=O)OCc1cc(-n2nc(C(F)(F)F)cc2-c2ccc3c(c2)CCO3)ccc1S(N)(=O)=O
ED50 (Rattus norvegicus [2]): 8.5 mg/kg
inhibition [3]: 61%
inhibition [5]: 0%

CCC(=O)[N-]S(=O)(=O)c1ccc(-n2nc(C(F)(F)F)cc2-c2ccc(OC)c(C)c2)cc1COC(=O)CC.[Na+]
inhibition at 30 mg/kg (Rattus norvegicus [1]): 34%

CCC(=O)OCc1cc(-n2nc(C(F)F)cc2-c2ccc(Br)cc2)ccc1S(N)(=O)=O
inhibition [3]: 55%
inhibition [5]: 5%
inhibition at 30 mg/kg (Rattus norvegicus [1]): 40%

COc1ccc(-c2cc(C(F)F)nn2-c2ccc(S(N)(=O)=O)c(CO)c2)cc1C
ED50 (Rattus norvegicus [2]): 18.5 mg/kg
Tmax [6]: 2.25 h
AUC [7]: 2.4 µg·h/mL
Cmax [8]: 700 ng/mL

CCC(=O)NS(=O)(=O)c1ccc(-n2nc(C(F)F)cc2-c2ccc(OC)c(C)c2)cc1COC(=O)CC [listing 1 of 2 here]
inhibition at 30 mg/kg (Rattus norvegicus [1]): 42%

CCC(=O)[N-]S(=O)(=O)c1ccc(-n2nc(C(F)(F)F)cc2-c2ccc(SC)cc2)cc1COC(=O)CC.[Na+]
inhibition at 30 mg/kg (Rattus norvegicus [1]): 40%

CCC(=O)[N-]S(=O)(=O)c1ccc(-n2nc(C(F)(F)F)cc2-c2ccc3c(c2)CCO3)cc1CO.[Na+]
ED50 (Rattus norvegicus [2]): 7.5 mg/kg
inhibition [3]: 25%
inhibition [5]: 5%

CCC(=O)OCc1cc(-n2nc(C(F)(F)F)cc2-c2ccc3c(c2)CCC3)ccc1S(N)(=O)=O
inhibition [3]: 57%
inhibition [5]: 0%
inhibition at 30 mg/kg (Rattus norvegicus [1]): 30%

CCC(=O)[N-]S(=O)(=O)c1ccc(-n2nc(C(F)F)cc2-c2ccc(OC)c(C)c2)cc1CO.[Na+]
ED50 (Rattus norvegicus [2]): 6.3 mg/kg
inhibition [3]: 13%
AUC(0-inf) [4]: 114 µg·h/mL
inhibition [5]: 0%
Tmax [6]: 2.82 h
AUC [7]: 106 µg·h/mL
Cmax [8]: 7540 ng/mL
half-life [9]: 5.92 h

CCC(=O)OCc1cc(-n2nc(C(F)(F)F)cc2-c2ccc(Br)cc2)ccc1S(N)(=O)=O
ED50 (Rattus norvegicus [2]): 17 mg/kg
inhibition [3]: 65%
inhibition [5]: 0%

NS(=O)(=O)c1ccc(-n2nc(C(F)(F)F)cc2-c2ccc3c(c2)CCO3)cc1CO
ED50 (Rattus norvegicus [2]): 22.3 mg/kg

CCC(=O)NS(=O)(=O)c1ccc(-n2nc(C(F)(F)F)cc2-c2ccc3c(c2)CCO3)cc1COC(=O)CC [listing 1 of 2 here]
inhibition [3]: 2% and 12%
inhibition [5]: 0%

CCC(=O)NS(=O)(=O)c1ccc(-n2nc(C(F)(F)F)cc2-c2ccc3c(c2)CCO3)cc1COC(=O)CC [listing 2 of 2 here]
inhibition at 30 mg/kg (Rattus norvegicus [1]): 25%

CCC(=O)NS(=O)(=O)c1ccc(-n2nc(C(F)(F)F)cc2-c2ccc3c(c2)CCC3)cc1COC(=O)CC [listing 1 of 2 here]
Activity (Rattus norvegicus [10]): inactive
Activity (Rattus norvegicus [11]): inactive
inhibition [5]: 0%
Activity (Rattus norvegicus [12]): inactive

NS(=O)(=O)c1ccc(-n2nc(C(F)(F)F)cc2-c2ccc(Br)cc2)cc1CO
inhibition at 30 mg/kg (Rattus norvegicus [1]): 35%

CCC(=O)NS(=O)(=O)c1ccc(-n2nc(C(F)(F)F)cc2-c2ccc(OC)c(C)c2)cc1COC(=O)CC [listing 2 of 2 here]
inhibition [3]: 10% and 5%
inhibition [5]: 0%

CCC(=O)NS(=O)(=O)c1ccc(-n2nc(C(F)F)cc2-c2ccc(Br)cc2)cc1COC(=O)CC [listing 1 of 2 here]
inhibition at 30 mg/kg (Rattus norvegicus [1]): 45%

COc1ccc(-c2cc(C(F)(F)F)nn2-c2ccc(S(N)(=O)=O)c(CO)c2)cc1C
ED50 (Rattus norvegicus [2]): 21.7 mg/kg
AUC(0-inf) [4]: 112 µg·h/mL
Tmax [6]: 3.5 h
AUC [7]: 73.7 µg·h/mL
Cmax [8]: 6370 ng/mL
half-life [9]: 6.63 h

CSc1ccc(-c2cc(C(F)(F)F)nn2-c2ccc(S(N)(=O)=O)c(CO)c2)cc1
inhibition at 30 mg/kg (Rattus norvegicus [1]): 47%

CCC(=O)[N-]S(=O)(=O)c1ccc(-n2nc(C(F)F)cc2-c2ccc(OC)c(C)c2)cc1COC(=O)CC.[Na+]
inhibition at 30 mg/kg (Rattus norvegicus [1]): 32%

CCC(=O)NS(=O)(=O)c1ccc(-n2nc(C(F)(F)F)cc2-c2ccc(Br)cc2)cc1COC(=O)CC [listing 1 of 2 here]
inhibition [3]: 25% and 35%
inhibition [5]: 0%

CCC(=O)NS(=O)(=O)c1ccc(-n2nc(C(F)(F)F)cc2-c2ccc(Br)cc2)cc1COC(=O)CC [listing 2 of 2 here]
inhibition at 30 mg/kg (Rattus norvegicus [1]): 37%

Cc1ccc(-c2cc(C(F)(F)F)nn2-c2ccc(S(N)(=O)=O)cc2)cc1 [CELECOXIB]
ED50 (Rattus norvegicus [2]): 6.7 mg/kg

CCC(=O)NS(=O)(=O)c1ccc(-n2nc(C(F)(F)F)cc2-c2ccc3c(c2)CCC3)cc1COC(=O)CC [listing 2 of 2 here]
Inhibition (Rattus norvegicus [2]; 30 mg/kg): 64%

CCC(=O)[N-]S(=O)(=O)c1ccc(-n2nc(C(F)F)cc2-c2ccc(Br)cc2)cc1CO.[Na+]
ED50 (Rattus norvegicus [2]): 5.6 mg/kg
inhibition [3]: 14%
AUC(0-inf) [4]: 321 µg·h/mL
inhibition [5]: 0%
Tmax [6]: 2.85 h
AUC [7]: 289 µg·h/mL
Cmax [8]: 28400 ng/mL
half-life [9]: 7.42 h

CCC(=O)[N-]S(=O)(=O)c1ccc(-n2nc(C(F)(F)F)cc2-c2ccc(SC)cc2)cc1CO.[Na+]
inhibition [3]: 21%
inhibition [5]: 0%
inhibition at 30 mg/kg (Rattus norvegicus [1]): 36%

CCC(=O)OCc1cc(-n2nc(C(F)(F)F)cc2-c2ccc(OC)c(C)c2)ccc1S(N)(=O)=O
ED50 (Rattus norvegicus [2]): 10.9 mg/kg
inhibition [5]: 12%

NS(=O)(=O)c1ccc(-n2nc(C(F)F)cc2-c2ccc(Br)cc2)cc1CO
AUC(0-inf) [4]: 265 µg·h/mL
Tmax [6]: 2.67 h
AUC [7]: 239 µg·h/mL
Cmax [8]: 20800 ng/mL
half-life [9]: 7.51 h
inhibition at 30 mg/kg (Rattus norvegicus [1]): 42%

CCCC(=O)[N-]S(=O)(=O)c1ccc(-n2nc(C(F)(F)F)cc2-c2ccc(C)cc2)cc1.[Na+]
ED50 (Rattus norvegicus [2]): 6.64 mg/kg
inhibition [3]: 2%
inhibition [5]: 0%

CCC(=O)NS(=O)(=O)c1ccc(-n2nc(C(F)F)cc2-c2ccc(Br)cc2)cc1COC(=O)CC [listing 2 of 2 here]
inhibition [3]: 12% and 25%
inhibition [5]: 0% and 1%

CCC(=O)[N-]S(=O)(=O)c1ccc(-n2nc(C(F)F)cc2-c2ccc(Br)cc2)cc1COC(=O)CC.[Na+]
ED50 (Rattus norvegicus [2]): 7.9 mg/kg

CCC(=O)OCc1cc(-n2nc(C(F)F)cc2-c2ccc(OC)c(C)c2)ccc1S(N)(=O)=O
ED50 (Rattus norvegicus [2]): 15 mg/kg
inhibition [3]: 75%
inhibition [5]: 0%

NS(=O)(=O)c1ccc(-n2nc(C(F)(F)F)cc2-c2ccc3c(c2)CCC3)cc1CO
ED50 (Rattus norvegicus [2]): 23.5 mg/kg

CCC(=O)NS(=O)(=O)c1ccc(-n2nc(C(F)F)cc2-c2ccc(OC)c(C)c2)cc1COC(=O)CC [listing 2 of 2 here]
inhibition [5]: 0%

CCC(=O)[N-]S(=O)(=O)c1ccc(-n2nc(C(F)(F)F)cc2-c2ccc(Br)cc2)cc1COC(=O)CC.[Na+]
ED50 (Rattus norvegicus [2]): 12.5 mg/kg
